Test results as given in US12077503B2, “Substituted cyclic amides and their use as herbicides” (FMC CORPORATION, priority 2015, dated 2024).

Key:
Type in all cases: in vivo
[1] = test system: giant foxtail (Setaria faberi); assay: Test G Pre-Emergence Protocol; settings: Setaria faberi, pre-emergence, 312 h, evaluated after 13 days; for pest or weed control at 15.625 g/ha: 15.625 g ai/ha; for pest or weed control at 15.625 g/ha / pest or weed control at 250 g/ha: read-out: Foxtail, Giant damage rating (100=total damage to plant; 0=no damage to plant); for pest or weed control at 62.5 g/ha: 62.5 g ai/ha, 100=total damage to plant, 0=no damage to plant, read-out: Foxtail, Giant damage rating; for pest or weed control at 250 g/ha: 250 g ai/ha
Outline: (§1)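 Pre-emergence spray, 15.625/62.5/250 g/ha, vehicle acetone:water 50:50 + 0.5% Tween 20, applied 1 d after sowing. Glasshouse 24/16° C, 14 h light, 65% RH, watered twice daily. Visual damage rating at 13 d, 0–100 scale.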

[2] = test system: velvetleaf (Abutilon theophrasti); assay: Test G Pre-Emergence Protocol; settings: Abutilon theophrasti, pre-emergence, 312 h, evaluated after 13 days; for pest or weed control at 15.625 g/ha: 15.625 g ai/ha; for pest or weed control at 15.625 g/ha / pest or weed control at 250 g/ha: read-out: Velvetleaf damage rating (100=total damage to plant; 0=no damage to plant); for pest or weed control at 62.5 g/ha: 62.5 g ai/ha, 100=total damage to plant, 0=no damage to plant, read-out: Velvetleaf damage rating; for pest or weed control at 250 g/ha: 250 g ai/ha
Outline: as §1

[3] = test system: redroot pigweed (Amaranthus retroflexus); assay: Test G Pre-Emergence Protocol; settings: Amaranthus retroflexus, pre-emergence, 312 h, evaluated after 13 days; for pest or weed control at 15.625 g/ha: 15.625 g ai/ha; for pest or weed control at 15.625 g/ha / pest or weed control at 250 g/ha: read-out: Pigweed, Redroot damage rating (100=total damage to plant; 0=no damage to plant); for pest or weed control at 62.5 g/ha: 62.5 g ai/ha, 100=total damage to plant, 0=no damage to plant, read-out: Pigweed, Redroot damage rating; for pest or weed control at 250 g/ha: 250 g ai/ha
Outline: as §1

corn (Zea mays) [4] = assay: Test G Pre-Emergence Protocol; settings: Zea mays, pre-emergence, 312 h, evaluated after 13 days; for plant injury at 15.625 g/ha: 15.625 g ai/ha; for plant injury at 15.625 g/ha / plant injury at 250 g/ha: read-out: Corn damage rating (100=total damage to plant; 0=no damage to plant); for plant injury at 62.5 g/ha: 62.5 g ai/ha, 100=total damage to plant, 0=no damage to plant, read-out: Corn damage rating; for plant injury at 250 g/ha: 250 g ai/ha
Outline: as §1

[5] = test system: ivy-leaved morning glory (Ipomoea hederacea); assay: Test G Pre-Emergence Protocol; settings: Ipomoea, pre-emergence, 312 h, evaluated after 13 days; for pest or weed control at 15.625 g/ha: 15.625 g ai/ha; for pest or weed control at 15.625 g/ha / pest or weed control at 250 g/ha: read-out: Morningglory, Ivy-leaved damage rating (100=total damage to plant; 0=no damage to plant); for pest or weed control at 62.5 g/ha: 62.5 g ai/ha, 100=total damage to plant, 0=no damage to plant, read-out: Morningglory, Ivy-leaved damage rating; for pest or weed control at 250 g/ha: 250 g ai/ha
Outline: as §1

[6] = test system: barnyardgrass (Echinochloa crus-galli); assay: Test G Pre-Emergence Protocol; settings: Echinochloa crus-galli, pre-emergence, 312 h, evaluated after 13 days; for pest or weed control at 15.625 g/ha: 15.625 g ai/ha; for pest or weed control at 15.625 g/ha / pest or weed control at 250 g/ha: read-out: Barnyardgrass damage rating (100=total damage to plant; 0=no damage to plant); for pest or weed control at 62.5 g/ha: 62.5 g ai/ha, 100=total damage to plant, 0=no damage to plant, read-out: Barnyardgrass damage rating; for pest or weed control at 250 g/ha: 250 g ai/ha
Outline: as §1

[7] = test system: giant foxtail (Setaria faberi); assay: Test G Post-Emergence Protocol; settings: Setaria faberi, post-emergence, 312 h, read-out: Foxtail, Giant damage rating; for pest or weed control at 15.625 g/ha: 15.625 g ai/ha, evaluated after 13 days (100=total damage to plant; 0=no damage to plant); for pest or weed control at 62.5 g/ha: 62.5 g ai/ha; for pest or weed control at 62.5 g/ha / pest or weed control at 250 g/ha: evaluated after 13 days, 100=total damage to plant, 0=no damage to plant; for pest or weed control at 250 g/ha: 250 g ai/ha
Outline: (§2)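 Foliar application was made 8 days after sowing, using an aqueous spray of the active in acetone/water (50:50) with 0.5% Tween 20, at doses of 15.625, 62.5 or 250 g/ha. Injury was assessed 13 days later, where 100 meant the plant was fully damaged.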

[8] = test system: velvetleaf (Abutilon theophrasti); assay: Test G Post-Emergence Protocol; settings: Abutilon theophrasti, post-emergence, 312 h, read-out: Velvetleaf damage rating; for pest or weed control at 15.625 g/ha: 15.625 g ai/ha, evaluated after 13 days (100=total damage to plant; 0=no damage to plant); for pest or weed control at 62.5 g/ha: 62.5 g ai/ha; for pest or weed control at 62.5 g/ha / pest or weed control at 250 g/ha: evaluated after 13 days, 100=total damage to plant, 0=no damage to plant; for pest or weed control at 250 g/ha: 250 g ai/ha
Outline: as §2

[9] = test system: redroot pigweed (Amaranthus retroflexus); assay: Test G Post-Emergence Protocol; settings: Amaranthus retroflexus, post-emergence, 312 h, read-out: Pigweed, Redroot damage rating; for pest or weed control at 15.625 g/ha: 15.625 g ai/ha, evaluated after 13 days (100=total damage to plant; 0=no damage to plant); for pest or weed control at 62.5 g/ha: 62.5 g ai/ha; for pest or weed control at 62.5 g/ha / pest or weed control at 250 g/ha: evaluated after 13 days, 100=total damage to plant, 0=no damage to plant; for pest or weed control at 250 g/ha: 250 g ai/ha
Outline: as §2

corn (Zea mays) [10] = assay: Test G Post-Emergence Protocol; settings: Zea mays, post-emergence, 312 h, read-out: Corn damage rating; for plant injury at 15.625 g/ha: 15.625 g ai/ha, evaluated after 13 days (100=total damage to plant; 0=no damage to plant); for plant injury at 62.5 g/ha: 62.5 g ai/ha; for plant injury at 62.5 g/ha / plant injury at 250 g/ha: evaluated after 13 days, 100=total damage to plant, 0=no damage to plant; for plant injury at 250 g/ha: 250 g ai/ha
Outline: as §2

[11] = test system: ivy-leaved morning glory (Ipomoea hederacea); assay: Test G Post-Emergence Protocol; settings: Ipomoea, post-emergence, 312 h, read-out: Morningglory, Ivy-leaved damage rating; for pest or weed control at 15.625 g/ha: 15.625 g ai/ha, evaluated after 13 days (100=total damage to plant; 0=no damage to plant); for pest or weed control at 62.5 g/ha: 62.5 g ai/ha; for pest or weed control at 62.5 g/ha / pest or weed control at 250 g/ha: evaluated after 13 days, 100=total damage to plant, 0=no damage to plant; for pest or weed control at 250 g/ha: 250 g ai/ha
Outline: as §2

[12] = test system: barnyardgrass (Echinochloa crus-galli); assay: Test G Post-Emergence Protocol; settings: Echinochloa crus-galli, post-emergence, 312 h, read-out: Barnyardgrass damage rating; for pest or weed control at 15.625 g/ha: 15.625 g ai/ha, evaluated after 13 days (100=total damage to plant; 0=no damage to plant); for pest or weed control at 62.5 g/ha: 62.5 g ai/ha; for pest or weed control at 62.5 g/ha / pest or weed control at 250 g/ha: evaluated after 13 days, 100=total damage to plant, 0=no damage to plant; for pest or weed control at 250 g/ha: 250 g ai/ha
Outline: as §2

| SMILES | pest or weed control at 15.625 g/ha [1] [%] | pest or weed control at 62.5 g/ha [1] [%] | pest or weed control at 250 g/ha [1] [%] | pest or weed control at 15.625 g/ha [2] [%] | pest or weed control at 62.5 g/ha [2] [%] | pest or weed control at 250 g/ha [2] [%] | pest or weed control at 15.625 g/ha [3] [%] | pest or weed control at 62.5 g/ha [3] [%] | pest or weed control at 250 g/ha [3] [%] | plant injury at 15.625 g/ha (corn (Zea mays) [4]) [%] | plant injury at 62.5 g/ha (corn (Zea mays) [4]) [%] | plant injury at 250 g/ha (corn (Zea mays) [4]) [%] | pest or weed control at 15.625 g/ha [5] [%] | pest or weed control at 62.5 g/ha [5] [%] | pest or weed control at 250 g/ha [5] [%] | pest or weed control at 15.625 g/ha [6] [%] | pest or weed control at 62.5 g/ha [6] [%] | pest or weed control at 250 g/ha [6] [%] | pest or weed control at 15.625 g/ha [7] [%] | pest or weed control at 62.5 g/ha [7] [%] | other results |
| --- | --- | --- | --- | --- | --- | --- | --- | --- | --- | --- | --- | --- | --- | --- | --- | --- | --- | --- | --- | --- | --- |
| CN1C[C@@H](c2ccc(C(F)(F)F)cc2)[C@H](C(=O)Nc2ccnc(Cl)c2F)C1=O (racemic) [Compound 1656] | 0 | 0 | 80 | 0 | 0 | 0 | 0 | 0 | 0 | 0 | 0 | 0 | 0 | 20 | 0 | 0 | 0 | 20 | 20 | 30 | pest or weed control at 250 g/ha [7]: 80%; pest or weed control at 15.625 g/ha [8]: 0%; pest or weed control at 62.5 g/ha [8]: 0%; pest or weed control at 250 g/ha [8]: 20%; pest or weed control at 15.625 g/ha [9]: 0%; pest or weed control at 62.5 g/ha [9]: 20%; pest or weed control at 250 g/ha [9]: 30%; plant injury at 15.625 g/ha (corn (Zea mays) [10]): 0%; plant injury at 62.5 g/ha (corn (Zea mays) [10]): 0%; plant injury at 250 g/ha (corn (Zea mays) [10]): 0%; pest or weed control at 15.625 g/ha [11]: 0%; pest or weed control at 62.5 g/ha [11]: 0%; pest or weed control at 250 g/ha [11]: 0%; pest or weed control at 15.625 g/ha [12]: 10%; pest or weed control at 62.5 g/ha [12]: 10%; pest or weed control at 250 g/ha [12]: 30% |
| CN1C[C@@H](c2ccc(C(F)(F)F)cc2)[C@H](C(=O)Nc2cncc(F)n2)C1=O (racemic) [Compound 1657] | 0 | 60 | 80 | 0 | 0 | 0 | 0 | 20 | 50 | 0 | 0 | 0 | 0 | 0 | 0 | 0 | 10 | 20 | 0 | 40 | pest or weed control at 250 g/ha [7]: 70%; pest or weed control at 15.625 g/ha [8]: 0%; pest or weed control at 62.5 g/ha [8]: 20%; pest or weed control at 250 g/ha [8]: 20%; pest or weed control at 15.625 g/ha [9]: 0%; pest or weed control at 62.5 g/ha [9]: 40%; pest or weed control at 250 g/ha [9]: 60%; plant injury at 15.625 g/ha (corn (Zea mays) [10]): 0%; plant injury at 62.5 g/ha (corn (Zea mays) [10]): 10%; plant injury at 250 g/ha (corn (Zea mays) [10]): 20%; pest or weed control at 15.625 g/ha [11]: 0%; pest or weed control at 62.5 g/ha [11]: 10%; pest or weed control at 250 g/ha [11]: 30%; pest or weed control at 15.625 g/ha [12]: 0%; pest or weed control at 62.5 g/ha [12]: 10%; pest or weed control at 250 g/ha [12]: 40% |
| CN1C[C@@H](c2ccc(C(F)(F)F)cc2)[C@H](C(=O)Nc2n[nH]cc2Cl)C1=O (racemic) [Compound 1658] | 0 | 0 | 0 | 0 | 0 | 0 | 0 | 0 | 0 | 0 | 0 | 0 | 0 | 0 | 0 | 0 | 0 | 0 | 0 | 0 | pest or weed control at 250 g/ha [7]: 20%; pest or weed control at 15.625 g/ha [8]: 0%; pest or weed control at 62.5 g/ha [8]: 0%; pest or weed control at 250 g/ha [8]: 10%; pest or weed control at 15.625 g/ha [9]: 0%; pest or weed control at 62.5 g/ha [9]: 10%; pest or weed control at 250 g/ha [9]: 40%; plant injury at 15.625 g/ha (corn (Zea mays) [10]): 0%; plant injury at 62.5 g/ha (corn (Zea mays) [10]): 0%; plant injury at 250 g/ha (corn (Zea mays) [10]): 10%; pest or weed control at 15.625 g/ha [11]: 0%; pest or weed control at 62.5 g/ha [11]: 0%; pest or weed control at 250 g/ha [11]: 20%; pest or weed control at 15.625 g/ha [12]: 0%; pest or weed control at 62.5 g/ha [12]: 0%; pest or weed control at 250 g/ha [12]: 20% |
